Patent US9096595B2, “7-(heteroaryl-amino)-6,7,8,9-tetrahydropyrido[1,2-a]indol acetic acid derivatives and their use as prostaglandin D2 receptor modulators” (Actelion Pharmaceuticals Ltd, priority 2011, dated 2015)

Legend:
hCRTH2 receptor [1] = target: T1, hCRTH2 receptor (Homo sapiens (Human), UniProt Q9Y5Y4); assay: hCRTH2 receptor membranes radioligand (3H-PGD2) displacement assay; conditions: 3H-PGD2 2.5 nM, HEK293-hCRTH2 membrane fragments, Binding-Buffer with 0.1% BSA
Method: (§1) First, recombinant HEK293-hCRTH2 cells were detached from culture plates into 5 ml buffer A/plate (Buffer A: 5 mM Tris, 1 mM MgCl2-6H2O pH=7.4) using a rubber policeman. Cells were then transferred into centrifugation tubes and centrifuged for 5 min at 400 g. The cell pellet was resuspended in the same buffer and tubes were frozen at −80° C. Cells were thawed and membrane fragments were generated by homogenization using a polytron homogenizer (30 seconds). The membrane fragments were then centrifuged at 3000 g for 20 minutes and resuspended in buffer C (Buffer C: 75 mM Tris, 25 mM MgCl2, 250 mM Saccharose pH 7.4). Aliquots of membrane fragments were stored at −20° C.
(§2) Binding assay was performed in a final assay volume of 250 μl. First, 25 μl of test compound, previously diluted in Binding-Buffer (Binding-Buffer: 50 mM Tris-Base, 100 mM NaCl, 1 mM EDTA, 0.1% BSA (protease free), 0.01% NaN3, 10 mM MnCl2 pH 7.0) was placed into each well. After addition of 75 μl Binding-Buffer, 50 μl of the radioligand ^3H-PGD2 (at 2.5 nM (220.000 dpm/well) from ANAWA ART0662) was added to each well. Binding assay was started by addition of 100 μl CRTH2 membrane fragments, reaching a final concentration of 20 μg/well. For non-specific binding, PGD2 was added to the reaction mixture to […] final concentration. This assay mix was incubated for 90 minutes at room temperature and then filtered through a GF/C filter 96-well plate which was pre-soaked for 3 hours in 0.5% polyethyleneimine (PEI). The filter-wells were washed three times with ice cold Binding-Buffer. Then, 40 μl of Microscint-40 (Packard) was added to each well and the retained radioactivity quantified in a Topcount (Packard).

hCRTH2 receptor [2] = target: T1, hCRTH2 receptor; assay: Radioligand displacement assay in presence of human serum albumin (HSA); conditions: 3H-PGD2 2.5 nM, HEK293-hCRTH2 membrane fragments, Binding-Buffer-HSA with 0.5% human serum albumin instead of 0.1% BSA
Method: as §1, §2
Radioligand displacement assay in presence of human serum albumin (HSA) was performed as described above, with following modifications. Binding-Buffer-HSA: Binding-buffer+0.5% Sigma Albumin from Human serum A1887 (instead of 0.1% BSA). A volume of 25 μl test compound, previously diluted in Binding-Buffer-HSA was placed into each well. After addition of 75 μl Binding-Buffer-HSA, 50 μl of ^3H-PGD2 (at 2.5 nM (220.000 dpm/well) from ANAWA ART0662) was added to each well. Remaining protocol was identical as described above.

T1 sequence (Q9Y5Y4 whole entry, the tested form may be a part): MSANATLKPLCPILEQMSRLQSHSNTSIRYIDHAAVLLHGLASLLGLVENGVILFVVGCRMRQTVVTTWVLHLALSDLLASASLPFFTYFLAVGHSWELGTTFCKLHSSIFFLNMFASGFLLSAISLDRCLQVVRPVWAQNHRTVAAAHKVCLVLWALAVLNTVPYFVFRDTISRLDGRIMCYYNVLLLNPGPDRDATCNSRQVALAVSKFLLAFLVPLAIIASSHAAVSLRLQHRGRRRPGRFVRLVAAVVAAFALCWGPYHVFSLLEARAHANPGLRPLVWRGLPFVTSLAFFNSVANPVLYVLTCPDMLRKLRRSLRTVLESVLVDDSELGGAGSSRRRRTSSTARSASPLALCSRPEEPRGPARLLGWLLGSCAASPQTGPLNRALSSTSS

Structure (SMILES) | IC50 (hCRTH2 receptor [1]) [nM] | IC50 (hCRTH2 receptor [2]) [nM]
O=C(O)Cc1c2n(c3cc(Cl)ccc13)CC(Nc1ncc(F)cn1)CC2 (stereo not shown) [Example 36, 2-(3-chloro-7-((5-fluoropyrimidin-2-yl)amino)-6,7,8,9-tetrahydropyrido[1,2-a]indol-10-yl)acetic acid] | 65 | 465
CN(c1ncc(F)cn1)C1CCc2c(CC(=O)O)c3cc(F)ccc3n2C1 (stereo not shown) [Example 7, 2-(2-fluoro-7-((5-fluoropyrimidin-2-yl)(methyl)amino)-6,7,8,9-tetrahydropyrido[1,2-a]indol-10-yl)acetic acid] | 17 | 119
CN(c1nc2ccc(F)cc2s1)C1CCc2c(CC(=O)O)c3ccc(C(F)(F)F)cc3n2C1 (stereo not shown) [Example 26, 2-(7-((6-fluorobenzo[d]thiazol-2-yl)(methyl)amino)-3-(trifluoromethyl)-6,7,8,9-tetrahydropyrido[1,2-a]indol-10-yl)acetic acid] | 16 | 15
O=C(O)Cc1c2n(c3cc(Cl)ccc13)CC(Nc1ncc(Cl)cn1)CC2 (stereo not shown) [Example 37, 2-(3-chloro-7-((5-chloropyrimidin-2-yl)amino)-6,7,8,9-tetrahydropyrido[1,2-a]indol-10-yl)acetic acid] | 27 | 385
CN(c1nc2cc(F)ccc2o1)C1CCc2c(CC(=O)O)c3cc(Cl)ccc3n2C1 (stereo not shown) [Example 16, 2-(2-chloro-7-((5-fluorobenzo[d]oxazol-2-yl)(methyl)amino)-6,7,8,9-tetrahydropyrido[1,2-a]indol-10-yl)acetic acid] | 21 | > 1000
Cc1ccc2c(c1)c(CC(=O)O)c1n2CC(N(C)c2nc3cc(F)ccc3o2)CC1 (stereo not shown) [Example 14, 2-(7-((5-fluorobenzo[d]oxazol-2-yl)(methyl)amino)-2-methyl-6,7,8,9-tetrahydropyrido[1,2-a]indol-10-yl)acetic acid] | 42 | > 1000
CN(c1ncc(C(F)(F)F)cn1)C1CCc2c(CC(=O)O)c3ccc(F)cc3n2C1 (stereo not shown) [Example 18, 2-(3-fluoro-7-(methyl(5-(trifluoromethyl)pyrimidin-2-yl)amino)-6,7,8,9-tetrahydropyrido[1,2-a]indol-10-yl)acetic acid] | 6 | 71
CN(c1nc2cc(F)ccc2o1)C1CCc2c(CC(=O)O)c3ccccc3n2C1 (stereo not shown) [Example 5, 2-(7-((5-fluorobenzo[d]oxazol-2-yl)(methyl)amino)-6,7,8,9-tetrahydropyrido[1,2-a]indol-10-yl)acetic acid] | 16 | 24
CN(c1nc2cc(F)ccc2o1)C1CCc2c(CC(=O)O)c3ccc(C(F)(F)F)cc3n2C1 (stereo not shown) [Example 28, 2-(7-((5-fluorobenzo[d]oxazol-2-yl)(methyl)amino)-3-(trifluoromethyl)-6,7,8,9-tetrahydropyrido[1,2-a]indol-10-yl)acetic acid] | 8 | 20
O=C(O)Cc1c2n(c3cc(F)ccc13)CC(Nc1nc3cc(F)ccc3o1)CC2 (stereo not shown) [Example 35, 2-(3-fluoro-7-((5-fluorobenzo[d]oxazol-2-yl)amino)-6,7,8,9-tetrahydropyrido[1,2-a]indol-10-yl)acetic acid] | 11 | 20
CN(c1ncc(Cl)cn1)C1CCc2c(CC(=O)O)c3ccccc3n2C1 (stereo not shown) [Example 1, 2-(7-((5-chloropyrimidin-2-yl)(methyl)amino)-6,7,8,9-tetrahydropyrido[1,2-a]indol-10-yl)acetic acid] | 21 | 66
CN(c1nc2ccc(F)cc2s1)C1CCc2c(CC(=O)O)c3ccccc3n2C1 (stereo not shown) [Example 4, 2-(7-((6-fluorobenzo[d]thiazol-2-yl)(methyl)amino)-6,7,8,9-tetrahydropyrido[1,2-a]indol-10-yl)acetic acid] | 9 | 43

These reach a lower IC50 (hCRTH2 receptor [1]). Values come first.

IC50 (hCRTH2 receptor [1]) [nM] | IC50 (hCRTH2 receptor [2]) [nM] | Structure (SMILES)
5 | 11 | CN(c1ncc(F)cn1)C1CCc2c(CC(=O)O)c3ccc(C(F)(F)F)cc3n2C1 (stereo not shown) [Example 24, 2-(7-((5-fluoropyrimidin-2-yl)(methyl)amino)-3-(trifluoromethyl)-6,7,8,9-tetrahydropyrido[1,2-a]indol-10-yl)acetic acid]
5 | 4 | CN(c1ncc2cc(F)ccc2n1)C1CCc2c(CC(=O)O)c3ccc(Cl)cc3n2C1 (stereo not shown) [Example 40, 2-(3-chloro-7-((6-fluoroquinazolin-2-yl)(methyl)amino)-6,7,8,9-tetrahydropyrido[1,2-a]indol-10-yl)acetic acid]
1 | 37 | CN(c1ncc2ccc(F)cc2n1)C1CCc2c(CC(=O)O)c3ccc(Cl)cc3n2C1 (stereo not shown) [Example 41, 2-(3-chloro-7-((7-fluoroquinazolin-2-yl)(methyl)amino)-6,7,8,9-tetrahydropyrido[1,2-a]indol-10-yl)acetic acid]
3 | 5 | CN(c1ncc2ccccc2n1)C1CCc2c(CC(=O)O)c3ccc(Cl)cc3n2C1 (stereo not shown) [Example 39, 2-(3-chloro-7-(methyl(quinazolin-2-yl)amino)-6,7,8,9-tetrahydropyrido[1,2-a]indol-10-yl)acetic acid]
1 | 9 | CCN(c1nc2cc(F)ccc2o1)C1CCc2c(CC(=O)O)c3ccc(Cl)cc3n2C1 (stereo not shown) [Example 50, 2-(3-chloro-7-(ethyl(5-fluorobenzo[d]oxazol-2-yl)amino)-6,7,8,9-tetrahydropyrido[1,2-a]indol-10-yl)acetic acid]
1 | 21 | CCCN(c1ncc(F)cn1)C1CCc2c(CC(=O)O)c3ccc(Cl)cc3n2C1 (stereo not shown) [Example 49, 2-(3-chloro-7-((5-fluoropyrimidin-2-yl)(propyl)amino)-6,7,8,9-tetrahydropyrido[1,2-a]indol-10-yl)acetic acid]
1 | 20 | CN(c1nc2ccc(F)cc2o1)C1CCc2c(CC(=O)O)c3ccc(F)cc3n2C1 (stereo not shown) [Example 20, 2-(3-fluoro-7-((6-fluorobenzo[d]oxazol-2-yl)(methyl)amino)-6,7,8,9-tetrahydropyrido[1,2-a]indol-10-yl)acetic acid]
5 | 13 | CN(c1nc2cc(F)ccc2o1)C1CCc2c(CC(=O)O)c3ccc(Cl)cc3n2C1 (stereo not shown) [Example 31, 2-(3-chloro-7-((5-fluorobenzo[d]oxazol-2-yl)(methyl)amino)-6,7,8,9-tetrahydropyrido[1,2-a]indol-10-yl)acetic acid]
2 | 246 | Cc1cnc(N(C)C2CCc3c(CC(=O)O)c4ccc(Cl)cc4n3C2)nc1 (stereo not shown) [Example 38, 2-(3-chloro-7-(methyl(5-methylpyrimidin-2-yl)amino)-6,7,8,9-tetrahydropyrido[1,2-a]indol-10-yl)acetic acid]
2 | 12 | CN(c1cnc2cc(F)ccc2n1)C1CCc2c(CC(=O)O)c3ccc(Cl)cc3n2C1 (stereo not shown) [Example 43, 2-(3-chloro-7-((6-fluoroquinoxalin-2-yl)(methyl)amino)-6,7,8,9-tetrahydropyrido[1,2-a]indol-10-yl)acetic acid]
2 | 6 | CC(C)CN(c1nc2cc(F)ccc2o1)C1CCc2c(CC(=O)O)c3ccc(Cl)cc3n2C1 (stereo not shown) [Example 48, 2-(3-chloro-7-((5-fluorobenzo[d]oxazol-2-yl)(isobutyl)amino)-6,7,8,9-tetrahydropyrido[1,2-a]indol-10-yl)acetic acid]
3 | 5 | CC(C)N(c1nc2cc(F)ccc2o1)C1CCc2c(CC(=O)O)c3ccc(Cl)cc3n2C1 (stereo not shown) [Example 46, 2-(3-chloro-7-((5-fluorobenzo[d]oxazol-2-yl)(isopropyl)amino)-6,7,8,9-tetrahydropyrido[1,2-a]indol-10-yl)acetic acid]
0.8 | 69 | COCCN(c1ncc(F)cn1)C1CCc2c(CC(=O)O)c3ccc(Cl)cc3n2C1 (stereo not shown) [Example 47, 2-(3-chloro-7-((5-fluoropyrimidin-2-yl)(2-methoxyethyl)amino)-6,7,8,9-tetrahydropyrido[1,2-a]indol-10-yl)acetic acid]
0.7 | 7 | CN(c1nc2cc(F)ccc2o1)C1CCc2c(CC(=O)O)c3ccc(F)cc3n2C1 (stereo not shown) [Example 10, 2-(3-fluoro-7-((5-fluorobenzo[d]oxazol-2-yl)(methyl)amino)-6,7,8,9-tetrahydropyrido[1,2-a]indol-10-yl)acetic acid]
